In ChEMBL document CHEMBL1130812, “The design and synthesis of inhibitors of the cysteinyl protease, Der p I” (Bioorg Med Chem Lett, 1998):
Where a SMILES comes first, the peptide text is derived from it. The star is where a group is joined. Boc = CC(C)(C)OC(=O)*

Key:
[1] = test system: Dermatophagoides pteronyssinus; assay: Inhibitory activity against Cysteinyl protease was evaluated by method A in experiment 1
[2] = test system: Dermatophagoides pteronyssinus; assay: Inhibitory activity against Cysteinyl protease was evaluated by method A in experiment 2
[3] = test system: Dermatophagoides pteronyssinus; assay: Inhibitory activity against Cysteinyl protease was evaluated by method B
[4] = test system: Dermatophagoides pteronyssinus; assay: Inhibitory activity against Cysteinyl protease was evaluated by method A
[5] = Inhibitory activity against Cysteinyl protease was evaluated; set-up: species or system Dermatophagoides pteronyssinus
[6] = Reversible Inhibitory activity on Cysteinyl protease was evaluated; set-up: species or system Dermatophagoides pteronyssinus

Compound: CCCC[C@H](NC(=O)[C@H](C)NC(=O)[C@@H](NC(=O)c1ccccc1)C(C)C)C(=O)COC(=O)c1ccccc1
- k obs / 1 [1]: 370000 M⁻¹ s⁻¹
- k obs / 1 [2]: 50000 M⁻¹ s⁻¹

Compound: CC(C)C[C@@H](/C=C/S(C)(=O)=O)NC(=O)[C@H](C)NC(=O)[C@@H](NC(=O)OC(C)(C)C)C(C)C
- k obs / 1 [1]: 1100 M⁻¹ s⁻¹
- k obs / 1 [2]: 11000 M⁻¹ s⁻¹

Compound: CCCC[C@H](NC(=O)[C@H](C)NC(=O)[C@@H](NC(=O)c1ccccc1)C(C)C)C(=O)COC(=O)c1c(Cl)cccc1Cl
- k obs / 1 [3]: 6.8e+07 M⁻¹ s⁻¹

Compound: CC(C)C[C@@H](/C=C/S(=O)(=O)c1ccccc1)NC(=O)[C@H](C)NC(=O)[C@@H](NC(=O)OC(C)(C)C)C(C)C
- k obs / 1 [1]: 6400 M⁻¹ s⁻¹
- k obs / 1 [2]: 25000 M⁻¹ s⁻¹

Compound: CCOC(=O)/C=C/[C@H](CC(C)C)NC(=O)[C@H](C)NC(=O)[C@@H](NC(=O)c1ccccc1)C(C)C
- k obs / 1 [1]: 4100 M⁻¹ s⁻¹
- k obs / 1 [2]: 16000 M⁻¹ s⁻¹

Compound: CCOC(=O)/C=C/[C@H](CC(C)C)NC(=O)[C@H](C)NC(=O)[C@@H](NC(C)=O)C(C)C
- k obs / 1 [4]: < 100 M⁻¹ s⁻¹

Compound: CCOC(=O)/C=C/[C@H](CC(C)C)NC(=O)[C@H](C)NC(=O)[C@@H](N)C(C)C
- k obs / 1 [4]: < 100 M⁻¹ s⁻¹

Compound: CC(C)C[C@@H](C=O)NC(=O)[C@H](C)NC(=O)[C@@H](NC(=O)OC(C)(C)C)C(C)C (Boc-Val-Ala-Leu-aldehyde)
- Ki [5]: 14 nM

Compound: CC(C)C[C@@H](/C=C/S(=O)(=O)Cc1ccccc1)NC(=O)[C@H](C)NC(=O)[C@@H](NC(=O)OC(C)(C)C)C(C)C
- k obs / 1 [1]: 2300 M⁻¹ s⁻¹
- k obs / 1 [2]: 350000 M⁻¹ s⁻¹

Compound: CCCC[C@H](NC(=O)[C@H](C)NC(=O)[C@@H](NC(=O)c1ccccc1)C(C)C)C(=O)CBr
- Ki [6]: 1.6 nM

Compound: CCCC[C@H](NC(=O)[C@H](C)NC(=O)[C@@H](NC(=O)c1ccccc1)C(C)C)C(=O)COC(=O)c1c(C(F)(F)F)cccc1C(F)(F)F
- k obs / 1 [3]: 1.3e+07 M⁻¹ s⁻¹
- k obs / 1 [1]: 1e+06 M⁻¹ s⁻¹
- k obs / 1 [2]: 2.2e+06 M⁻¹ s⁻¹

Compound: CCOC(=O)/C=C/[C@H](CC(C)C)NC(=O)[C@H](C)NC(=O)[C@@H](NC(=O)OC(C)(C)C)C(C)C
- k obs / 1 [1]: 1700 M⁻¹ s⁻¹
- k obs / 1 [2]: 7900 M⁻¹ s⁻¹

Compound: CCCC[C@H](NC(=O)[C@H](C)NC(=O)[C@@H](NC(=O)c1ccccc1)C(C)C)C(=O)COC(=O)c1c(C)cccc1C
- k obs / 1 [3]: 1.6e+07 M⁻¹ s⁻¹
